Experimental data from BindingDB's records for doi:10.1016/j.chembiol.2008.10.017 (University of Toronto, 2008).

Target: T1, Putative farnesyl pyrophosphate synthase (Cryptosporidium parvum (strain Iowa II), UniProt Q5CR09)
T1 sequence (Q5CR09 whole entry): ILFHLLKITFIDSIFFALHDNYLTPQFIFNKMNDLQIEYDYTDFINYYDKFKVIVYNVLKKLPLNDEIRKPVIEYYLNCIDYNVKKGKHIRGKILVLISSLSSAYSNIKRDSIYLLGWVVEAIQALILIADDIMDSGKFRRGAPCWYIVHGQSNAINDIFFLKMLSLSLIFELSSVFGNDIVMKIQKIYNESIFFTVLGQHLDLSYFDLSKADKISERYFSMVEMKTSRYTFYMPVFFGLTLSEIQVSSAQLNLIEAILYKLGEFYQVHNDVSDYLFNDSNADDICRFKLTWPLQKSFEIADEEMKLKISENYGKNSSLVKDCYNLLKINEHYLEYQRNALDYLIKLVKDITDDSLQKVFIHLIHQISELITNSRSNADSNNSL
Test: Enzymatic Assay
Conditions: pH 7.7; 37 °C
Description: Enzymatic assay using CpNPPPS was assayed using Reed and Rilling method with some modification.

Compound: O=P(O)(O)C(O)(Cc1cccnc1)P(=O)(O)O [JMC515594 Compound 64]
- IC50: 45.7 nM
- Ki: 0.38 nM

Compound: O=P(O)(O)C(O)(Cn1ccnc1)P(=O)(O)O
- IC50: 30.1 nM
- Ki: 0.05 nM
